Measured values reported in US20070264324A1, “Use of Vegetable Anthraquinone Derivatives and Vegetable Polysaccharides For Treating Human Immunodeficiency Virus (HIV)” (priority 2004, published 2007).

Tested on: TC740 cells
Type: cell-based
Details: 72 h
Experimental: The present invention relates to using emodin and RRP to inhibit HIV in an exogenous (however endocellular) environment, in order to attest their anti-HIV effectiveness. More specifically, the invention includes: • 1. Preparing emodin and RRP solutions with various concentrations (70-98% for emodin, and 80-95% for RRP). • 2. Culturing test subjects containing 100 μL of cells using cell incubator under 37° C. and 5% CO2 for 24 hours, forming monolayer on each culture media. • 3. Testing the toxicity of the agents: apply Rheum rhaponticum extractions to the monolayer on culture medium. Maintain the culture media under 37° C. and 5% CO2 for 72 hours, and observe the monolayer for cellular viability. […] These standard concentrations of emodin range between 70% and 98%, and those of RRP range between 80% and 95%. • 4. Testing the anti-HIV effectiveness of emodin and RRP: apply a specific concentration of HIV to those culture medium containing viable cells and already applied with emodin and/or RRP. Observe the viability of cells, and compare them with those in the control groups.
3. Cytotoxicity test: apply an emodin/RRP mixture with a concentration between 1600 μg/mL and 25 μg/mL to the culture medium, and maintain the medium under […] for 72 hours before observing.

SMILES: Cc1cc(O)c2c(c1)C(=O)c1cc(O)cc(O)c1C2=O [emodin]
- standard concentrations that do not affect the growth of cells: 70% and 98%
